From patent publication US20100286092A1, “BETA-LACTAMASE INHIBITORS” (priority 2007, published 2010) come the findings set out here.

Conditions in all cases: in the presence of a fixed amount (8 μg/mL) of Ceftazidime; CAMHB, 16-20 hours at 37° C.
The test system of experiment [1] is E. coli expressing the Class A ESBL SHV-5. It counts as cell-based. The source says:
(§1) To determine the ability of test compounds to potentiate the inhibition of the growth of bacterial strains producing beta-lactamase enzymes, classic cell based screening assays were employed. Four bacteria strains producing beta-lactamase enzymes were used: K. pneumoniae expressing the Class A Extended Spectrum Beta-Lactamase (ESBL) CTX-M-15, E. coli expressing the Class A ESBL SHV-5, E. cloacae expressing the Class C P99+, and K. pneumoniae expressing the Class A carbapenemase KPC-2. In order to evaluate the ability of test compounds to inhibit beta-lactamase activity, Applicants used a modification of the broth microdilution assay. The assay was conducted in Cation Adjusted Mueller Hinton Broth (CAMHB, BD #212322, BD Diagnostic Systems, Sparks, Md.). Bacteria strains were grown for 3-5 hours in CAMBH broth. All four strains were grown in presence of 50 μg/mL ampicillin to ensure resistance is maintained. In the meantime, test compounds were diluted in DMSO to a 0.1 mg/mL stock. The compounds were added to a microtiter plate and were diluted in 2-fold serial dilutions in CAMHB in a final concentration range of 8 μg/mL to 0.015 μg/ml. An overlay of CAMHB containing a cephalosporin was added to the compounds at a final static concentration of 8 μg/ml. […] Each of these compound plates are made in quadruplicate, one for each bacteria strain. In addition to the titration of test compounds the MICs of a panel of cephalosporins is also tested to ensure the strains are behaving consistently from test to test. Once the test compound and cephalosporin are added the plates can be inoculated. Inocula are conducted according to CLSI broth microdilution method. After inoculation the plates are incubated for 16-20 hours at 37° C. then the Minimal Inhibitory Concentration (MIC) of the test compound is determined visually.
(§2) Using the methodology described above, examples of the current invention were evaluated for their ability to inhibit the growth of β-lactamase producing bacteria in the presence of a β-lactam antibiotic. […] NT=Not Tested.

Experiment [2] deals with K. pneumoniae expressing the Class A Extended Spectrum Beta-Lactamase (ESBL) CTX-M-15. It counts as cell-based.
Excerpt: as §1, §2

For experiment [3], the system named is K. pneumoniae expressing the Class A carbapenemase KPC-2.
Excerpt: as §1, §2

For experiment [4], the system named is E. cloacae expressing the Class C P99+. Format: cell-based.
Excerpt: as §1, §2

With `Cn1nc(-c2ccccc2)cc1C(=O)N[C@@H](Cc1cccc(C(=O)O)c1O)B(O)O` [Example 44, (1R)-1-(1-methyl-3-phenyl-1H-pyrazole-5-carbonyl-amino)-2-(2-hydroxy-3-carboxyphenyl)ethyl-1-boronic acid], the “MIC of example compound, E. coli SHV-5 + 8 μg/mL CAZ” value (from here on “MIC … E. coli SHV-5 + 8 μg/mL CAZ”) in experiment [1] is “A (A represents an MIC>8 μg/mL)”. For the same compound, in experiment [2], the “MIC of example compound, K. pneumoniae CTX-M-15 + 8 μg/mL CAZ” value (“MIC … K. pneumoniae CTX-M-15 + 8 μg/mL CAZ” below) is “A (A represents an MIC>8 μg/mL)”.

As to `O=C(O)COc1cccc(CC(=O)N[C@@H](Cc2cccc(C(=O)O)c2O)B(O)O)c1` [Example 7, (1R)-1-[3-(carboxymethoxy)-phenyl]acetylamino-(3-carboxy-2-hydroxy)benzyl-methylboronic acid], the “MIC of example compound, K. pneumoniae KPC-2 + 8 μg/mL CAZ” value (“MIC … K. pneumoniae KPC-2 + 8 μg/mL CAZ” below) in experiment [3] is listed as “C (C represents an MIC of <1 μg/mL)”. For the same compound, the “MIC … E. coli SHV-5 + 8 μg/mL CAZ” value in experiment [1] is “C (C represents an MIC of <1 μg/mL)”. Also, the “MIC … K. pneumoniae CTX-M-15 + 8 μg/mL CAZ” value in experiment [2] is “C (C represents an MIC of <1 μg/mL)”.

`O=C(N[C@@H](Cc1cccc(C(=O)O)c1O)B(O)O)c1ccc(F)cc1` [Example 26, (1R)-1-(4-Fluorobenzoylamino)-(3-carboxy-2-hydroxy)benzyl-methylboronic acid]: the “MIC … K. pneumoniae KPC-2 + 8 μg/mL CAZ” value in experiment [3] is “C (C represents an MIC of <1 μg/mL)”. In addition, in experiment [4], the “MIC of example compound, E. cloacae P99 AmpC + 8 μg/mL CAZ” value (“MIC … E. cloacae P99 AmpC + 8 μg/mL CAZ” for short) is “C (C represents an MIC of <1 μg/mL)”. The “MIC … K. pneumoniae CTX-M-15 + 8 μg/mL CAZ” value in experiment [2] is recorded as “C (C represents an MIC of <1 μg/mL)”.

Turning to `CCC(=O)N[C@@H](Cc1cccc(C(=O)O)c1O)B(O)O` [Example 16, (1R)-1-(propionylamino)-2-(2-hydroxy-3-carboxyphenyl)ethyl-1-boronic acid], in experiment [3], the “MIC … K. pneumoniae KPC-2 + 8 μg/mL CAZ” value is listed as “C (C represents an MIC of <1 μg/mL)”. The “MIC … E. cloacae P99 AmpC + 8 μg/mL CAZ” value in experiment [4] is “C (C represents an MIC of <1 μg/mL)”. Besides, the “MIC … K. pneumoniae CTX-M-15 + 8 μg/mL CAZ” value in experiment [2] is on record as “C (C represents an MIC of <1 μg/mL)”.

For `CCCCCC(=O)N[C@@H](Cc1cccc(C(=O)O)c1O)B(O)O` [Example 21, (1R)-1-Hexanoylamino-(3-carboxy-2-hydroxy)benzyl-methylboronic acid], the “MIC … K. pneumoniae KPC-2 + 8 μg/mL CAZ” value in experiment [3] was “C (C represents an MIC of <1 μg/mL)”. The “MIC … E. coli SHV-5 + 8 μg/mL CAZ” value in experiment [1] was “C (C represents an MIC of <1 μg/mL)”. Besides, the “MIC … K. pneumoniae CTX-M-15 + 8 μg/mL CAZ” value in experiment [2] is “C (C represents an MIC of <1 μg/mL)”.

`O=C(O)c1cccc(C[C@H](NC(=O)C2CCCC2)B(O)O)c1O` [Example 15, (1R)-1-Cyclopentanecarbonylamino-(3-carboxy-2-hydroxy)benzyl-methylboronic acid]: in experiment [3], the “MIC … K. pneumoniae KPC-2 + 8 μg/mL CAZ” value was “C (C represents an MIC of <1 μg/mL)”. In addition, the “MIC … E. cloacae P99 AmpC + 8 μg/mL CAZ” value in experiment [4] is “C (C represents an MIC of <1 μg/mL)”. Moreover, the “MIC … K. pneumoniae CTX-M-15 + 8 μg/mL CAZ” value in experiment [2] is recorded as “C (C represents an MIC of <1 μg/mL)”.

Consider `O=C(O)c1cccc(C[C@H](NC(=O)c2c(Cl)cccc2Cl)B(O)O)c1O` [Example 43, (1R)-1-(2,6-Dichlorobenzoyl)-amino-1-(3-carboxy-2-hydroxy)benzyl-methylboronic acid], for which the “MIC … K. pneumoniae KPC-2 + 8 μg/mL CAZ” value in experiment [3] is on record as “A (A represents an MIC>8 μg/mL)”. Besides, in experiment [1], the “MIC … E. coli SHV-5 + 8 μg/mL CAZ” value is “A (A represents an MIC>8 μg/mL)”. Besides, the “MIC … K. pneumoniae CTX-M-15 + 8 μg/mL CAZ” value in experiment [2] was “A (A represents an MIC>8 μg/mL)”.

With `O=C(CO)N[C@@H](Cc1cccc(C(=O)O)c1O)B(O)O` [Example 19, (1R)-1-Hydroxyacetylamino-1-(3-carboxy-2-hydroxy)benzyl-methyl boronic acid], the “MIC … K. pneumoniae KPC-2 + 8 μg/mL CAZ” value in experiment [3] is recorded as “C (C represents an MIC of <1 μg/mL)”. In addition, the “MIC … E. coli SHV-5 + 8 μg/mL CAZ” value in experiment [1] was “A (A represents an MIC>8 μg/mL)”. The “MIC … K. pneumoniae CTX-M-15 + 8 μg/mL CAZ” value in experiment [2] is recorded as “C (C represents an MIC of <1 μg/mL)”.

For `O=C(N[C@@H](Cc1cccc(C(=O)O)c1O)B(O)O)c1ccccc1` [Example 13, (1R)-1-Benzoylamino-1-(3-carboxy-2-hydroxy)benzyl-methylboronic acid], the “MIC … K. pneumoniae KPC-2 + 8 μg/mL CAZ” value in experiment [3] was “C (C represents an MIC of <1 μg/mL)”. Further, in experiment [4], the “MIC … E. cloacae P99 AmpC + 8 μg/mL CAZ” value is on record as “C (C represents an MIC of <1 μg/mL)”. Also, the “MIC … K. pneumoniae CTX-M-15 + 8 μg/mL CAZ” value in experiment [2] is reported as “C (C represents an MIC of <1 μg/mL)”.

As to `O=C(N[C@@H](Cc1cccc(C(=O)O)c1O)B(O)O)c1cccs1` [Example 11, (1R)-1-(thiophene-2-carbonyl-amino)-2-(2-hydroxy-3-carboxyphenyl)ethyl-1-boronic acid], in experiment [3], the “MIC … K. pneumoniae KPC-2 + 8 μg/mL CAZ” value is given as “C (C represents an MIC of <1 μg/mL)”. In addition, the “MIC … E. cloacae P99 AmpC + 8 μg/mL CAZ” value in experiment [4] is recorded as “C (C represents an MIC of <1 μg/mL)”. In addition, the “MIC … K. pneumoniae CTX-M-15 + 8 μg/mL CAZ” value in experiment [2] is “C (C represents an MIC of <1 μg/mL)”.

As for `NCCC(=O)N[C@@H](Cc1cccc(C(=O)O)c1O)B(O)O.O=CO` [Example 38, (1R)-1-(3-aminopropanoylamino)-2-(2-hydroxy-3-carboxyphenyl)ethyl-1-boronic acid formate salt], in experiment [3], the “MIC … K. pneumoniae KPC-2 + 8 μg/mL CAZ” value was “C (C represents an MIC of <1 μg/mL)”. In experiment [1], the “MIC … E. coli SHV-5 + 8 μg/mL CAZ” value is reported as “A (A represents an MIC>8 μg/mL)”. Further, the “MIC … K. pneumoniae CTX-M-15 + 8 μg/mL CAZ” value in experiment [2] was “A (A represents an MIC>8 μg/mL)”.

As for `O=C(Cc1cc(Br)cs1)N[C@@H](Cc1cccc(C(=O)O)c1O)B(O)O` [Example 9, (1R)-1-(2-(4-bromo-thiophen-2-nyl)acetylamino)-2-(2-hydroxy-3-carboxyphenyl)ethyl-1-boronic acid], the “MIC … K. pneumoniae KPC-2 + 8 μg/mL CAZ” value in experiment [3] is reported as “C (C represents an MIC of <1 μg/mL)”. In experiment [1], the “MIC … E. coli SHV-5 + 8 μg/mL CAZ” value is recorded as “C (C represents an MIC of <1 μg/mL)”. The “MIC … K. pneumoniae CTX-M-15 + 8 μg/mL CAZ” value in experiment [2] is reported as “C (C represents an MIC of <1 μg/mL)”.

On to `Cc1nc(-c2cccc(C(=O)N[C@@H](Cc3cccc(C(=O)O)c3O)B(O)O)c2)no1` [Example 47, (1R)-1-[3-(5-methyl-[1,2,4]oxadiazol-3-yl)-benzoyl]-amino-1-(3-carboxy-2-hydroxy)benzyl-methylboronic acid], for which the “MIC … E. coli SHV-5 + 8 μg/mL CAZ” value in experiment [1] is reported as “A (A represents an MIC>8 μg/mL)”. Moreover, the “MIC … K. pneumoniae CTX-M-15 + 8 μg/mL CAZ” value in experiment [2] was “A (A represents an MIC>8 μg/mL)”.

In the case of `O=C(N[C@@H](Cc1cccc(C(=O)O)c1O)B(O)O)c1ccc(O)cc1` [Example 36, (1R)-1-(4-Hydroxybenzoyl)-amino-1-(3-carboxy-2-hydroxy)benzyl-methylboronic acid], the “MIC … K. pneumoniae KPC-2 + 8 μg/mL CAZ” value in experiment [3] is reported as “C (C represents an MIC of <1 μg/mL)”. Further, the “MIC … E. cloacae P99 AmpC + 8 μg/mL CAZ” value in experiment [4] is listed as “C (C represents an MIC of <1 μg/mL)”. The “MIC … K. pneumoniae CTX-M-15 + 8 μg/mL CAZ” value in experiment [2] is “C (C represents an MIC of <1 μg/mL)”.

Turning to `O=C(O)c1cccc(C[C@H](NC(=O)C2CC2)B(O)O)c1O` [Example 20, (1R)-1-Cyclopropanecarbonyl-amino-1-(3-carboxy-2-hydroxy)benzyl-methylboronic acid], in experiment [3], the “MIC … K. pneumoniae KPC-2 + 8 μg/mL CAZ” value is recorded as “C (C represents an MIC of <1 μg/mL)”. In addition, the “MIC … E. cloacae P99 AmpC + 8 μg/mL CAZ” value in experiment [4] is recorded as “C (C represents an MIC of <1 μg/mL)”. The “MIC … K. pneumoniae CTX-M-15 + 8 μg/mL CAZ” value in experiment [2] is on record as “C (C represents an MIC of <1 μg/mL)”.

As for `CC(=O)NCC(=O)N[C@@H](Cc1cccc(C(=O)O)c1O)B(O)O` [Example 37, (1R)-1-(2-acetamidoacetylamino)-2-(2-hydroxy-3-carboxyphenyl)ethyl-1-boronic acid], the “MIC … K. pneumoniae KPC-2 + 8 μg/mL CAZ” value in experiment [3] was “C (C represents an MIC of <1 μg/mL)”. Moreover, the “MIC … E. cloacae P99 AmpC + 8 μg/mL CAZ” value in experiment [4] is “C (C represents an MIC of <1 μg/mL)”. Besides, the “MIC … K. pneumoniae CTX-M-15 + 8 μg/mL CAZ” value in experiment [2] is “C (C represents an MIC of <1 μg/mL)”.

Turning to `COc1ccccc1C(=O)N[C@@H](Cc1cccc(C(=O)O)c1O)B(O)O` [Example 34, (1R)-1-(2-methoxybenzoylamino)-2-(2-hydroxy-3-carboxyphenyl)ethyl-1-boronic acid], in experiment [3], the “MIC … K. pneumoniae KPC-2 + 8 μg/mL CAZ” value is “C (C represents an MIC of <1 μg/mL)”. In experiment [1], the “MIC … E. coli SHV-5 + 8 μg/mL CAZ” value is “A (A represents an MIC>8 μg/mL)”.

Regarding `O=C(N[C@@H](Cc1cccc(C(=O)O)c1O)B(O)O)c1ccc(N2CCOCC2)nc1` [Example 48, (1R)-1-(6-morpholin-4-yl-pyridine-3-carbonyl)-amino-1-(3-carboxy-2-hydroxy)benzyl-methylboronic acid], the “MIC … K. pneumoniae KPC-2 + 8 μg/mL CAZ” value in experiment [3] was “C (C represents an MIC of <1 μg/mL)”. Also, the “MIC … E. coli SHV-5 + 8 μg/mL CAZ” value in experiment [1] is on record as “A (A represents an MIC>8 μg/mL)”.
